Our source for the Solubility in water values is US10254456B2, “Polarizing plate composition, polarizing plate protective film, polarizer, polarizing plate, and liquid crystal display device” (FUJIFILM Corporation, priority 2014, dated 2019).

Structures are written as SMILES.

This series can be described thus: Solubility of additive in water. The series is classed as physicochemical. The following applies: 100 ml of pure water at 25° C. Here is the method: The amount of the additive dissolving in 100 ml of pure water at 25° C. was measured and evaluated according to the following criteria.
As to `O=C1NNC(=O)C1c1ccccc1` [2-1], the Solubility in water entry is “A (The amount of the additive dissolving in 100 ml of pure water was equal to or greater than 3 g and less than 5 g.)”.

With `CC(C)C1C(=O)NNC1=O` [2-3], the Solubility in water result was “A (The amount of the additive dissolving in 100 ml of pure water was equal to or greater than 3 g and less than 5 g.)”.

For `CC(=O)C(Cc1ccccc1S(=O)(=O)[O-])C(=O)c1ccccc1.[Na+]` (stereo not drawn) [3-2], the Solubility in water result is reported as “A+ (The amount of the additive dissolving in 100 ml of pure water was equal to or greater than 5 g.)”.

As to `CC1(C)CC(=O)C(Cc2ccccc2S(=O)(=O)O)C(=O)C1` [3-3], the Solubility in water result was “A+ (The amount of the additive dissolving in 100 ml of pure water was equal to or greater than 5 g.)”.

In the case of `O=C1c2ccccc2C(=O)C1Cc1ccccc1S(=O)(=O)O` [3-4], the Solubility in water result is recorded as “A+ (The amount of the additive dissolving in 100 ml of pure water was equal to or greater than 5 g.)”.

For `O=C1C(Cc2ccccc2S(=O)(=O)[O-])C(=O)N(c2ccccc2)N1c1ccccc1.[Na+]` [3-6], the Solubility in water result is “A+ (The amount of the additive dissolving in 100 ml of pure water was equal to or greater than 5 g.)”.

On to `CN1C(=O)C(Cc2ccccc2S(=O)(=O)[O-])C(=O)c2ccccc21.[Na+]` (stereo not drawn) [3-7], for which the Solubility in water result is recorded as “A+ (The amount of the additive dissolving in 100 ml of pure water was equal to or greater than 5 g.)”.

In the case of `O=C1Nc2ccccc2NC(=O)C1Cc1ccc(S(=O)(=O)[O-])cc1S(=O)(=O)O.[Na+]` [3-8], the Solubility in water entry is “A+ (The amount of the additive dissolving in 100 ml of pure water was equal to or greater than 5 g.)”.

With `O=C1C(Cc2ccc(S(=O)(=O)[O-])cc2S(=O)(=O)O)C(=O)N2CCCCN12.[Na+]` [3-9], the Solubility in water result is “A+ (The amount of the additive dissolving in 100 ml of pure water was equal to or greater than 5 g.)”.

Consider `O=C1CN(c2ccccc2)C(=O)C1Cc1ccccc1S(=O)(=O)O` (stereo not drawn) [3-10], for which the Solubility in water result is recorded as “A+ (The amount of the additive dissolving in 100 ml of pure water was equal to or greater than 5 g.)”.

Consider `O=Cc1ccc(CC2C(=O)N(c3ccccc3)N(c3ccc(S(=O)(=O)[O-])cc3)C2=O)cc1.[Na+]` (stereo not drawn) [5-1], for which the Solubility in water result is given as “A+ (The amount of the additive dissolving in 100 ml of pure water was equal to or greater than 5 g.)”.

Regarding `O=CC1C(=O)N(c2ccccc2)N(c2ccc(S(=O)(=O)[O-])cc2)C1=O.[Na+]` (stereo not drawn) [5-5], the Solubility in water result is “A+ (The amount of the additive dissolving in 100 ml of pure water was equal to or greater than 5 g.)”.

With `O=C1NC(=O)N(Cc2ccccc2)C(=O)C1c1ccccc1` (stereo not drawn) [Organic acid 1, reference compound], the Solubility in water entry is given as “C (The amount of the additive dissolving in 100 ml of pure water was less than 1 g.)”.

Regarding `Nc1c(F)c(F)c(C(=O)O)c(F)c1F` [Organic acid 2, reference compound], the Solubility in water result is “A (The amount of the additive dissolving in 100 ml of pure water was equal to or greater than 3 g and less than 5 g.)”.

Consider `[Cl-].[Cl-].[Zn+2]` [ZnCl2, reference compound], for which the Solubility in water entry is recorded as “A+ (The amount of the additive dissolving in 100 ml of pure water was equal to or greater than 5 g.)”.
